The record followed here is PubChem BioAssay (NCI).

Among the test systems are SK-MEL-2 melanoma; EKVX NSCLC; UACC-62 melanoma; OVCAR-4 ovarian; UACC-257 melanoma; TK-10 renal; ACHN renal; SK-MEL-5 melanoma; MALME-3M melanoma; SF-295 CNS; HCT-15 colon; NCI-H23 lung; IGROV1 ovarian; HCT-116 colon; RPMI-8226 leukemia.
What all share (assay): NCI anticancer screen, dose series, 48 h

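Values below derive from 48-hour exposures of cells grown in 96-well plates, with endpoints linearly interpolated between the two concentrations bracketing the appropriate inhibition level. Abbreviation: GI50, concentration required for 50% inhibition of growth. Definition used: TGI = concentration required for complete inhibition of growth.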

For `CC(=O)c1cccc(NC(=O)/C(=N\NC(C)(C)C)c2c(O)c3ccccc3oc2=O)c1`, the TGI in the assay on SK-MEL-2 melanoma, in the assay on EKVX NSCLC, with UACC-62 melanoma, with OVCAR-4 ovarian, in the assay with UACC-257 melanoma and in the assay on TK-10 renal was greater than 100 µM in each case. The TGI with ACHN renal, in the assay on SK-MEL-5 melanoma, with MALME-3M melanoma, with SF-295 CNS, with HCT-15 colon and in the assay on NCI-H23 lung was greater than 100 µM in each case. In addition, the TGI in the assay with IGROV1 ovarian and in the assay with HCT-116 colon was greater than 100 µM throughout.

Take `COc1cccc2c1CCc1ccccc1CC2=O`: the TGI in the assay with SK-MEL-2 melanoma, in the assay on EKVX NSCLC, in the assay with UACC-62 melanoma, in the assay on OVCAR-4 ovarian, in the assay with UACC-257 melanoma and in the assay with RPMI-8226 leukemia was greater than 100 µM each time. The TGI in the assay with TK-10 renal, in the assay on ACHN renal, with SK-MEL-5 melanoma, in the assay with MALME-3M melanoma, with SF-295 CNS and in the assay on HCT-15 colon was greater than 100 µM in each case. Further, the TGI in the assay with NCI-H23 lung, in the assay with IGROV1 ovarian and in the assay on HCT-116 colon was greater than 100 µM in each case.

For `COc1ccc(N2C(=O)C3c4[nH]c5ccc(OC)cc5c4C4CCC(C(C)(C)C)CC4C3C2=O)cc1` (centres undefined), the TGI with SK-MEL-2 melanoma was 70.4 µM; in the assay on EKVX NSCLC it was 92.3 µM; with UACC-62 melanoma, greater than 100 µM; in the assay with OVCAR-4 ovarian, 43.6 µM; in the assay on UACC-257 melanoma, greater than 100 µM; in the assay on RPMI-8226 leukemia, greater than 100 µM. Besides, the TGI in the assay on TK-10 renal was greater than 100 µM; in the assay with ACHN renal, greater than 100 µM; in the assay on SK-MEL-5 melanoma, greater than 100 µM; with MALME-3M melanoma it was 58 µM; in the assay on SF-295 CNS, 32.8 µM; with HCT-15 colon, greater than 100 µM. Further, the figures for the TGI in the assay on NCI-H23 lung, in the assay with IGROV1 ovarian and with HCT-116 colon were 80.8 µM, greater than 100 µM and 26.1 µM, respectively.

Consider `COc1cccc(-c2cc(=O)c3cc(OC)c(OC)cc3[nH]2)c1`, for which the TGI in the assay with EKVX NSCLC, in the assay on UACC-62 melanoma, in the assay on UACC-257 melanoma, in the assay with RPMI-8226 leukemia, in the assay on TK-10 renal and with ACHN renal was greater than 100 µM each time. Moreover, the TGI in the assay on MALME-3M melanoma, in the assay on SF-295 CNS, in the assay with HCT-15 colon, in the assay on NCI-H23 lung, in the assay on IGROV1 ovarian and in the assay on HCT-116 colon was greater than 100 µM each time. Also, the values for the GI50 in the assay on SF-295 CNS and in the assay with HCT-116 colon were 40.3 µM and 59.2 µM, respectively.

Regarding `C=CCCC(OCOCCOC)c1cc(C)c(O[Si](C)(C)C(C)(C)C)c(C)c1` (centres undefined), the TGI was 30.8 µM in the assay on SK-MEL-2 melanoma; 63.5 µM in the assay on EKVX NSCLC; 38.1 µM with UACC-62 melanoma; 26.6 µM in the assay with UACC-257 melanoma; 23.4 µM in the assay with RPMI-8226 leukemia; 41.2 µM in the assay on TK-10 renal. The TGI in the assay on ACHN renal is 26.7 µM; in the assay with SK-MEL-5 melanoma it was 24.3 µM; in the assay with MALME-3M melanoma, 41.4 µM; in the assay on SF-295 CNS, 31.8 µM; in the assay on HCT-15 colon, 31.4 µM; in the assay on NCI-H23 lung it was 31.5 µM. The same molecule yielded a TGI with IGROV1 ovarian of 90.5 µM.

Regarding `C/C(CC(=O)Nc1ccc(Cl)c(Cl)c1)=N/NC(=O)C[n+]1ccccc1`, the TGI with SK-MEL-2 melanoma, in the assay with EKVX NSCLC, in the assay on UACC-62 melanoma, with OVCAR-4 ovarian, in the assay on UACC-257 melanoma and in the assay on RPMI-8226 leukemia was greater than 100 µM throughout. Further, the TGI in the assay on TK-10 renal, with ACHN renal, with SK-MEL-5 melanoma, with MALME-3M melanoma, in the assay with SF-295 CNS and with HCT-15 colon was greater than 100 µM throughout. For the same molecule, the TGI in the assay with NCI-H23 lung, with IGROV1 ovarian and in the assay with HCT-116 colon was greater than 100 µM throughout.

Take `COc1ccc(C[C@@H]2Cc3cc(OC)c(OC)cc3CN2C)cc1`: the TGI in the assay with SK-MEL-2 melanoma, with EKVX NSCLC, in the assay with OVCAR-4 ovarian, in the assay with UACC-257 melanoma, in the assay on RPMI-8226 leukemia and with TK-10 renal was greater than 100 µM each time. Moreover, the TGI in the assay with ACHN renal, in the assay with SK-MEL-5 melanoma, in the assay with MALME-3M melanoma, with SF-295 CNS, in the assay on HCT-15 colon and in the assay with NCI-H23 lung was greater than 100 µM throughout.

With `OC12c3ccccc3C1(N1CCOCC1)CCCCC21OCCCO1` (centres undefined), the TGI in the assay on SK-MEL-2 melanoma, in the assay on UACC-62 melanoma, with OVCAR-4 ovarian, in the assay on UACC-257 melanoma, in the assay with RPMI-8226 leukemia and in the assay with TK-10 renal was greater than 100 µM in each case. The TGI in the assay on ACHN renal, in the assay on SK-MEL-5 melanoma, in the assay on MALME-3M melanoma, with SF-295 CNS, in the assay on HCT-15 colon and with NCI-H23 lung was greater than 100 µM in each case. Besides, the TGI with IGROV1 ovarian and in the assay with HCT-116 colon was greater than 100 µM in each case.

Take `Cc1nc2c(n1CCO)C(=O)c1ccccc1C2=O`: the TGI was 53 µM in the assay on SK-MEL-2 melanoma; greater than 100 µM in the assay with EKVX NSCLC; 30.9 µM in the assay on UACC-62 melanoma; 99 µM in the assay on OVCAR-4 ovarian; 34 µM with UACC-257 melanoma; greater than 100 µM in the assay with TK-10 renal. For the same molecule, the TGI with ACHN renal is greater than 100 µM; in the assay with SK-MEL-5 melanoma it was 23.4 µM; in the assay with MALME-3M melanoma, 24.2 µM; in the assay with SF-295 CNS, greater than 100 µM; in the assay with HCT-15 colon it was greater than 100 µM; in the assay on NCI-H23 lung, 30.8 µM. Besides, the TGI in the assay with IGROV1 ovarian worked out at 84 µM; in the assay on HCT-116 colon, 43 µM.

Consider `O=C(O)/C=C/n1c2ccccc2c(=O)c2ccccc21`, for which the TGI with SK-MEL-2 melanoma, in the assay on EKVX NSCLC, in the assay on UACC-62 melanoma, in the assay with OVCAR-4 ovarian, in the assay on UACC-257 melanoma and in the assay with RPMI-8226 leukemia was greater than 100 µM throughout. Besides, the TGI in the assay on ACHN renal, with MALME-3M melanoma, in the assay on SF-295 CNS, in the assay on HCT-15 colon, in the assay with NCI-H23 lung and in the assay on IGROV1 ovarian was greater than 100 µM in each case. This molecule registered a TGI with HCT-116 colon greater than 100 µM.
